US20260191769A1, “DRUG ELUTING IMPLANTS AND USES THEREOF” (MUSC FOUNDATION FOR RESEARCH DEVELOPMENT, priority 2022, published 2026)
Like-named read-outs stand apart in the source and are kept apart here.

System: Methicillin-Resistant Staphylococcus aureus (MRSA)
Test: microbe, parasite or virus in culture
Method: At the prescribed time points, gels were removed and placed in active bacteria cultures for 24 hours. After 24 hours, the gels were removed and the bacteria zone of exclusion will be measured.
Briefly, Methicillin-Resistant Staphylococcus aureus (MRSA) was cultured in brain-heart infusion broth and diluted to match a 0.5 McFarland turbidity standard. The resulting culture was tested with gram stain to ensure the MRSA was present. After determining that the MRSA was indeed gram-positive and present, the MRSA was carefully spread onto 150 mm agar plates to inoculate the plates. 5 mcg and 30 mcg vancomycin loaded disks were placed on each agar plate as antibiotic controls. Six plates were run in this experiment, with three plates containing aliquots (from the eluates collected from the study of Example 1 Aim 1) with peroxide (FIG. 7A), while the other three plates contained aliquots run with collagenase & phosphate buffered saline (FIG. 7B).
Aliquots from days 3, 7, 14, 21, and 28 were run. 10 μL of each aliquot was pipetted onto filter paper and placed onto the agar plates. The agar plates were incubated for 24 hours at 37 degrees Celsius, and the zones of inhibition were measured the following morning.

In the case of `CN[C@H](CC(C)C)C(=O)N[C@H]1C(=O)N[C@@H](CC(N)=O)C(=O)N[C@H]2C(=O)N[C@H]3C(=O)N[C@H](C(=O)N[C@H](C(=O)O)c4cc(O)cc(O)c4-c4cc3ccc4O)[C@H](O)c3ccc(c(Cl)c3)Oc3cc2cc(c3O[C@@H]2O[C@H](CO)[C@@H](O)[C@H](O)[C@H]2O[C@H]2C[C@](C)(N)[C@H](O)[C@H](C)O2)Oc2ccc(cc2Cl)[C@H]1O` [Vanc., vancomycin], the zone of inhibition at 5 µg/disc (read-out: 5 mcg Vanc. zone of inhibition, average, 5 mcg vancomycin control disk, average of plates 1-3 (collagenase & phosphate buffered saline)) is reported as 1.33 mm, the zone of inhibition at 5 µg/disc (read-out: 5 mcg Vanc. zone of inhibition, average, 5 mcg vancomycin control disk, average of plates 4-6 (peroxide)) is reported as 1.33 mm and the zone of inhibition at 30 µg/disc (read-out: 30 mcg Vanc. zone of inhibition, average, 30 mcg vancomycin control disk, average of plates 1-3 (collagenase & phosphate buffered saline)) is reported as 4.67 mm. For the same compound, the zone of inhibition at 30 µg/disc (read-out: 30 mcg Vanc. zone of inhibition, average, 30 mcg vancomycin control disk, average of plates 4-6 (peroxide)) was 4.33 mm.
